{
  "source": "patent US10577366B2",
  "about": "“Crystalline forms of a compound that inhibits bromodomain” (Plexxikon Inc., priority 2017, dated 2020)",
  "assay_type_in_all_cases": "physicochemical",
  "key": {"[1]": {"assay": "Dynamic vapor sorption (DVS) isotherm, solid form stability as a function of humidity", "settings": "for Water uptake: DVS at 25° C., up to 80% RH, solids pre-dried at 0% RH; for Form change after DVS test according to XRPD: after DVS at 25° C., 0% RH to 95% RH", "description": "DVS was measured via a SMS (Surface Measurement Systems) DVS Intrinsic. The relative humidity at 25° C. were calibrated against deliquescence point of LiCl, Mg(NO3)2 and KCl.\nDVS isotherm plot was collected at 25° C. to investigate the solid form stability as a function of humidity for Form A. Solids were pre-dried at 0% RH to remove surface solvent or water before DVS.\nDVS isotherm plot was collected at 25° C. to investigate the solid form stability as a function of humidity for Form C. Solids were pre-dried at 0% RH to remove surface solvent or water before DVS. Water uptake of 0.6% was observed up to 80% RH (FIG. 9)."}, "[2]": {"assay": "Solid form conversion on heating (XRPD / DSC)", "description": "For XRPD analyses provided herein, a PANalytical Empyrean X-ray powder diffract meter was used, and the XRPD parameters used are summarized in Table 1.\nDSC was performed using a TA Q200/Q2000 DSC from TA Instruments. TGA data were collected using a TA Q500/Q5000 TGA from TA Instruments. […]\nCompound I Form C was prepared via anti-solvent addition in acetone/n-heptane at RT. […] (peak temperature) followed by two endotherms at 232.8° C. and 265.7° C. (onset temperature). […] It is also contemplated that Form C may be an anhydrate based on the characterization results. […]"}, "[3]": {"assay": "Slurry turnover between forms in ACN at various temperatures", "settings": "for Solid form after slurry turnover (XRPD): 1:1 mass mixture with Form A in ACN", "description": "The conversion relationship between anhydrous Compound I Form A and Compound I Form C was investigated via slurry turnover at various temperatures (RT (25±3° C.) or 50° C.) as follows.\nAbout 5 mg of Compound I Form A was added to 1.0 mL of ACN, and the suspension was stirred at 50° C. for 2 hours to reach equilibrium. The suspension was filtered into a vial, which included 5 mg of Compound I Form A and Compound I Form C (mass ratio of 1:1). The mixture was stirred at a desired temperature for 4 days, and the solids were then analyzed by XRPD and DSC.\nThe conversion relationship between anhydrate Compound I Form A and Compound I Form E was investigated via slurry turnover at various temperatures (RT (25±3° C.) or 50° C.) and water activities as follows.\nFor various temperatures: About 5 mg of Compound I Form A was added to 1.0 mL of ACN, and the suspension was stirred at 50° C. for 2 hours to reach equilibrium. The suspension was filtered into a vial, which included 2 mg of Compound I Form A and Compound I Form E (mass ratio of 1:1). The mixture was stirred at a desired temperature for 4 days, and the solids were then analyzed by XRPD."}, "[4]": {"assay": "Slurry turnover between Form A and E at various water activities", "settings": "21 days, XRPD", "description": "For various water activities: About 10 mg of Compound I Form A was added to 1.0 mL EtOH/H2O with different aw (Table 12), and the suspension was stirred at RT for 1 hour to reach equilibrium. The suspension was filtered into a vial, which included 2 mg of Compound I Form A and Compound I Form E (mass ratio of 1:1). The mixture was stirred at the desired aw for 21 days, and the solids were then analyzed by XRPD."}, "[5]": {"settings": "stirred 4 days at RT (25±3° C.)"}},
  "note": "“Also recorded” adds a separate entry of the source.",
  "data": [
    {"molecule": "Cc1noc(C)c1-c1cnc2c(-c3ccc(C(=O)O)cc3)cn(C(C)(c3ccccn3)c3ccccn3)c2c1", "note": "[Form A, 4-(1-(1,1-di(pyridin-2-yl)ethyl)-6-(3,5-dimethylisoxazol-4-yl)-1H-pyrrolo[3,2-b]pyridin-3-yl)benzoic acid]", "values": [
      {"measurement": "Water uptake", "setting": "[1]", "result": 0.5, "unit": "%"},
      {"measurement": "Form change after DVS test according to XRPD", "setting": "[1]", "result": "No form change"},
      {"measurement": "Hygroscopicity", "setting": "[1]; judged from DVS water uptake up to 80% RH at 25° C.", "result": "slightly hygroscopic"},
      {"measurement": "Relative stability of Form A versus Form C", "setting": "[2]; based on the Burger-Ramberger Rules, before melting", "result": "monotropically more stable than Form C"},
      {"measurement": "Stability relationship between Form A and Form C", "setting": "[3]; from slurry turnover at RT and 50° C. and DSC, monotropic", "result": "more stable"}
    ]},
    {"molecule": "Cc1noc(C)c1-c1cnc2c(-c3ccc(C(=O)O)cc3)cn(C(C)(c3ccccn3)c3ccccn3)c2c1", "note": "[Form B, 4-(1-(1,1-di(pyridin-2-yl)ethyl)-6-(3,5-dimethylisoxazol-4-yl)-1H-pyrrolo[3,2-b]pyridin-3-yl)benzoic acid]", "values": [
      {"measurement": "Solid form after heating (XRPD)", "setting": "[2]; after heating to 110° C.", "result": "converted to Form A"}
    ]},
    {"molecule": "Cc1noc(C)c1-c1cnc2c(-c3ccc(C(=O)O)cc3)cn(C(C)(c3ccccn3)c3ccccn3)c2c1", "note": "[Form C, 4-(1-(1,1-di(pyridin-2-yl)ethyl)-6-(3,5-dimethylisoxazol-4-yl)-1H-pyrrolo[3,2-b]pyridin-3-yl)benzoic acid]", "values": [
      {"measurement": "Water uptake", "setting": "[1]", "result": 0.6, "unit": "%"},
      {"measurement": "Form change after DVS test according to XRPD", "setting": "[1]", "result": "Phase transition of Form C to Form A"},
      {"measurement": "Solid form after heating (XRPD/DSC)", "setting": "[2]; after heating above the exothermic peak (174.5° C., peak temperature)", "result": "completely converted to Form A; also recorded: convert to Form A"},
      {"measurement": "Solid form after slurry turnover (XRPD)", "setting": "[3]; stirred 4 days at 50° C.", "result": "converted to Form A"},
      {"measurement": "Solid form after slurry turnover (XRPD)", "setting": "[3]; [5]", "result": "converted to Form A"}
    ]},
    {"molecule": "Cc1noc(C)c1-c1cnc2c(-c3ccc(C(=O)O)cc3)cn(C(C)(c3ccccn3)c3ccccn3)c2c1", "note": "[Form D, 4-(1-(1,1-di(pyridin-2-yl)ethyl)-6-(3,5-dimethylisoxazol-4-yl)-1H-pyrrolo[3,2-b]pyridin-3-yl)benzoic acid]", "values": [
      {"measurement": "Solid form after heating (XRPD)", "setting": "[2]; after heating to 145° C. and cooling to ambient conditions", "result": "converted to Form C"}
    ]},
    {"molecule": "Cc1noc(C)c1-c1cnc2c(-c3ccc(C(=O)O)cc3)cn(C(C)(c3ccccn3)c3ccccn3)c2c1", "note": "[Form E, 4-(1-(1,1-di(pyridin-2-yl)ethyl)-6-(3,5-dimethylisoxazol-4-yl)-1H-pyrrolo[3,2-b]pyridin-3-yl)benzoic acid]", "values": [
      {"measurement": "Final Form", "setting": "[4]; Aw 0.298 (EtOH/H2O 952:48 v/v)", "result": "converted to Form A"},
      {"measurement": "Final Form", "setting": "[4]; Aw 0.605 (EtOH/H2O 855:145 v/v)", "result": "converted to Form A"},
      {"measurement": "Final Form", "setting": "[4]; Aw 0.900 (EtOH/H2O 450:550 v/v)", "result": "converted to Form A"},
      {"measurement": "Solid form after heating (XRPD)", "setting": "[2]; after heating to 150° C.", "result": "converted to Form A"},
      {"measurement": "Solid form after slurry turnover (XRPD)", "setting": "[3]; stirred 4 days at 50° C.", "result": "converted to Form A"},
      {"measurement": "Solid form after slurry turnover (XRPD)", "setting": "[3]; [5]", "result": "converted to Form A"}
    ]}
  ]
}
